Values quoted from earlier work, collected in patent publication US11350648B2, “Compositions and related methods for agriculture” (priority 2017, dated 2022).

Tested on: gram-negative and gram-positive bacteria as well as fungi

Which antimicrobial activity does the source give for “NCR335: cationic NCR peptide (RQMIILRLNTTFRPLNFKMLRFWGQN)” here?
The antimicrobial activity was “effective against gram-negative and gram-positive bacteria as well as fungi”.
